Counter-ions that a name gives are not always drawn. Like-named read-outs stand apart in the source and are kept apart here.
Columns and labels:
Format in all cases: cell-based
HTT mRNA = experiment: RT-qPCR splicing assay monitoring HTT canonical (CJ) and alternative (AJ) junction mRNA in A673 or K562 cells; conditions: 24 hours compound treatment, top dose 10 uM
Experimental: (§1) Compounds described herein were used to modulate RNA transcript abundance in cells. The expression of a target mRNA was measured by detecting the formation of an exon-exon junction in the canonical transcript (CJ). A compound mediated exon-inclusion event was detected by observing an increase in formation of a new junction with an alternative exon (AJ). Real-time qPCR assays were used to detect these splicing switches and interrogate the potency of various compounds towards different target genes. A high-throughput real time quantitative PCR (RT-qPCR) assay was developed to measure these two isoforms of the mRNA (CJ and AJ) for an exemplary gene, HTT, together with a control housekeeping gene, GAPDH or GUSB or PPIA, used for normalization. Briefly, the A673 or K562 cell line was treated with various compounds described herein (e.g., compounds of Formula (I)). After treatment, the levels of the HTT mRNA targets were determined from each sample of cell lysate by cDNA synthesis followed by qPCR.
• Cells-to-CT 1-step kit: ThermoFisher A25602, Cells-to-CT lysis reagent: ThermoFisher 4391851C, TaqMan™ Fast Virus 1-Step Master Mix: ThermoFisher 4444436 • GAPDH: VIC-PL, ThermoFisher 4326317E (Assay: Hs99999905_m1)—used for K562/suspension cell lines • GUSB: VIC-PL, ThermoFisher 4326320E (Assay: Hs99999908_m1)—used for K562/suspension cell lines • PPIA: VIC-PL, ThermoFisher 4326316E (Assay: Hs99999904_m1)—used for A673/adherent cell lines
(§2) The A673 cell line was cultured in DMEM with 10% FBS. Cells were diluted with full growth media and plated in a 96-well plate (15,000 cells in 100 ul media per well). The plate was incubated at 37° C. with 5% CO2 for 24 hours to allow cells to adhere. An 11-point 3-fold serial dilution of the compounds was made in DMSO then diluted in media in an intermediate plate. Compounds were transferred from the intermediate plate to the cell plate with the top dose at a final concentration of 10 uM in the well. Final DMSO concentration was kept at or below 0.25%. The cell plate was returned to the incubator at 37° C. with 5% CO2 for an additional 24 hours.
(§3) The K562 cell line was cultured in IMDM with 10% FBS. For K562, cells were diluted with full growth media and plated in either a 96-well plate (50,000 cells in 50 uL media per well) or a 384-well plate (8,000-40,000 cells in 45 uL media per well). An 11-point 3-fold serial dilution of the compounds were made in DMSO then diluted in media in an intermediate plate. Compound was transferred from the intermediate plate to the cell plate with the top dose at a final concentration of 10 uM in the well. Final DMSO concentration was kept at or below 0.25%. Final volume was 100 uL for 96-well plate and 50 uL for 384-well plate. The cell plate was then placed in an incubator at 37° C. with 5% CO2 for 24 hours.
(§4) The cells were then gently washed with 50 uL-100 uL cold PBS before proceeding to addition of lysis buffer. 30 uL-50 uL of room temperature lysis buffer with DNAse I (and optionally RNAsin) was added to each well. Cells were shaken/mixed thoroughly at room temperature for 5-10 minutes for lysis to take place and then 3 uL-5 uL of room temperature stop solution was added and wells were shaken/mixed again. After 2-5 minutes, the cell lysate plate was transferred to ice for RT-qPCR reaction setup. The lysates could also be frozen at −80° C. for later use.
In some cases, a direct lysis buffer was used. An appropriate volume of 3×lysis buffer (10 mM Tris, 150 mM NaCl, 1.5%-2.5% Igepal and 0.1-1 U/uL RNAsin, pH 7.4) was directly added to either K562 or A673 cells in media and mixed by pipetting 3 times. The plates were then incubated at room temperature with shaking/rocking for 20-50 minutes to allow for lysis to take place. After this time, the cell lysate plate was transferred to ice to set up for the RT-qPCR reactions. The lysates could also be frozen at −80° C. for later use. […]

HTT = experiment: Gene panel canonical junction RT-qPCR assay: HTT; conditions: read-out: HTT (IC50, decrease in CJ mRNA levels)
Experimental: as §1, §2, §3, §4
(§5) In some cases, a direct lysis buffer was used. An appropriate volume of 3×lysis buffer (10 mM Tris, 150 mM NaCl, 1.5%-2.5% Igepal and 0.1-1 U/uL RNAsin, pH 7.4) was directly added to either K562 or A673 cells in media and mixed by pipetting 3 times. The plates were then incubated at room temperature with shaking/rocking for 20-50 minutes to allow for lysis to take place. After this time, the cell lysate plate was transferred to ice to set up for the RT-qPCR reactions. The lysates could also be frozen at −80° C. for later use.
(§6) To set up 10 uL RT-qPCR reactions, cell lysates were transferred to 384-well qPCR plates containing the master mix according to the table below. The plates were sealed, gently vortexed, and spun down before the run. The volumes were adjusted accordingly in some instances where the reaction was carried in 20 uL. The table below summarizes the components of the RT-qPCR reactions:
(§7) The RT-qPCR reaction was performed using a QuantStudio (ThermoFisher) under the following fast cycling conditions. […]

Target C = experiment: Gene panel canonical junction RT-qPCR assay: Target C; conditions: read-out: Target C (IC50, decrease in CJ mRNA levels)
Experimental: as §1, §2, §3, §4, §5, §6, §7

[1] = decrease in CJ mRNA, read-out: HTT CJ AC50
[2] = increase in AJ mRNA, read-out: HTT AJ AC50

Compound | AC50 (HTT mRNA; [1]) | AC50 (HTT mRNA; [2]) | IC50 (HTT) | IC50 (Target C)
C[C@@H]1C[C@H](N(C)c2ccc(-c3ccc(-c4cn[nH]c4)c(=O)[nH]3)nn2)CCN1 [Compound 126, 6-(6-[methyl[(2R,4R)-2-methylpiperidin-4-yl]amino]pyridazin-3-yl)-3-(1H-pyrazol-4-yl)-1H-pyridin-2-one] | > 10 µM | > 10 µM |  | 
CN(c1ccc(-c2ccc(-c3cn[nH]c3)c(=O)[nH]2)nn1)[C@@H]1C[C@H]2CC[C@@H](C1)N2 [Compound 129, 6-[6-[(1R,3S,5S)-8-azabicyclo[3.2.1]octan-3-yl(methyl)amino]pyridazin-3-yl]-3-(1H-pyrazol-4-yl)-1H-pyridin-2-one] | 1 to 10 µM | 1 to 10 µM |  | 
COc1nc(-c2ccc(N(C)[C@H]3CCN[C@@H](C)C3)nn2)ccc1-n1cccn1 [Compound 135, 6-[6-methoxy-5-(pyrazol-1-yl)pyridin-2-yl]-N-methyl-N-[(2S,4S)-2-methylpiperidin-4-yl]pyridazin-3-amine] | > 10 µM | > 10 µM | > 10 µM | < 0.1 µM
CN(c1ccc(-c2ccc(-c3cn[nH]c3)c(C(F)(F)F)n2)nn1)[C@@H]1C[C@H]2CC[C@@H](C1)N2 [Compound 236] | > 10 µM | > 10 µM | > 10 µM | > 10 µM
COc1nc(-c2ccc(OC3CC(C)(C)NC(C)(C)C3)nn2)ccc1-c1cn[nH]c1 [Compound 244, 3-[6-methoxy-5-(1H-pyrazol-4-yl)pyridin-2-yl]-6-[(2,2,6,6-tetramethylpiperidin-4-yl)oxy] pyridazine] | 0.1 to 1 µM | 0.1 to 1 µM | < 0.1 µM | 0.1 to 1 µM
COc1nc(-c2ccc(OC3CC(C)(C)NC(C)(C)C3)nn2)ccc1-c1cnn(C)c1 [Compound 245, 3-[6-methoxy-5-(1-methylpyrazol-4-yl)pyridin-2-yl]-6-[(2,2,6,6-tetramethylpiperidin-4-yl)oxy]pyridazine] | 0.1 to 1 µM | 0.1 to 1 µM | < 0.1 µM | 0.1 to 1 µM
COc1nc(-c2ccc(N(C)C3CC(C)(C)NC(C)(C)C3)nn2)ccc1-c1cn[nH]c1 [Compound 246, 6-[6-methoxy-5-(1H-pyrazol-4-yl)pyridin-2-yl]-N-methyl-N-(2,2,6,6-tetramethylpiperidin-4-yl)pyridazin-3-amine] | < 0.1 µM | 0.1 to 1 µM | < 0.1 µM | 0.1 to 1 µM
COc1nc(-c2ccc(N(C)C3CC(C)(C)NC(C)(C)C3)nn2)ccc1-c1cnn(C)c1 [Compound 247, 6-[6-methoxy-5-(1-methylpyrazol-4-yl)pyridin-2-yl]-N-methyl-N-(2,2,6,6-tetramethylpiperidin-4-yl)pyridazin-3-amine] | 0.1 to 1 µM | 0.1 to 1 µM | < 0.1 µM | 0.1 to 1 µM
COc1cc(-c2ccc(N(C)[C@@H]3C[C@H]4CC[C@@H](C3)N4)nn2)ncc1-c1cn[nH]c1 [Compound 248] | > 10 µM | > 10 µM | > 10 µM | > 10 µM
CN(c1ccc(-c2ccc(-c3cn[nH]c3)c(F)n2)nn1)[C@@H]1C[C@H]2CC[C@@H](C1)N2 [Compound 249, (1R,3R,5S)—N-{6-[6-fluoro-5-(1H-pyrazol-4-yl)pyridin-2-yl]pyridazin-3-yl}-N-methyl-8-azabicyclo[3.2.1]octan-3-amine hydrochloride] | < 0.1 µM | < 0.1 µM | < 0.1 µM | < 0.1 µM
CN(c1ccc(-c2ccc(-c3cn[nH]c3)c(Cl)n2)nn1)[C@@H]1C[C@H]2CC[C@@H](C1)N2 [Compound 250, (exo)-N-{6-[6-chloro-5-(1H-pyrazol-4-yl)pyridin-2-yl]pyridazin-3-yl}-N-methyl-8-azabicyclo[3.2.1]octan-3-amine] | < 0.1 µM | < 0.1 µM | < 0.1 µM | 0.1 to 1 µM
COc1nc(-c2ccc(NC3CCNCC3)nn2)ccc1-c1cnn(C)c1 [Compound 257, 6-[6-methoxy-5-(1-methylpyrazol-4-yl)pyridin-2-yl]-N-(piperidin-4-yl)pyridazin-3-amine] | 1 to 10 µM | 1 to 10 µM | 1 to 10 µM | 1 to 10 µM
COc1nc(-c2ccc(OC3CC(C)(C)NC(C)(C)C3)nn2)ccc1-c1cnn(C)n1 [Compound 258, 3-[6-methoxy-5-(2-methyl-1,2,3-triazol-4-yl)pyridin-2-yl]-6-[(2,2,6,6-tetramethylpiperidin-4-yl)oxy]pyridazine] | 0.1 to 1 µM | 1 to 10 µM | 0.1 to 1 µM | 1 to 10 µM
COc1nc(-c2ccc(N(C)C3CC(C)(C)NC(C)(C)C3)nn2)ccc1-c1cnn(C)n1 [Compound 259] | 0.1 to 1 µM | 1 to 10 µM | 0.1 to 1 µM | 0.1 to 1 µM
COc1nc(-c2ccc(N(C)[C@@H]3C[C@H]4CC[C@@H](C3)N4)nn2)cnc1-c1cn[nH]c1 [Compound 260, (1R,3R,5S)—N-{6-[6-methoxy-5-(1H-pyrazol-4-yl)pyrazin-2-yl]pyridazin-3-yl}-N-methyl-8-azabicyclo [3.2.1] octan-3-amine hydrochloride] | 0.1 to 1 µM | 0.1 to 1 µM | < 0.1 µM | < 0.1 µM
CCOc1nc(-c2ccc(N(C)[C@@H]3C[C@H]4CC[C@@H](C3)N4)nn2)ccc1-c1cn[nH]c1 [Compound 261, (1R,3R,5S)—N-{6-[6-ethoxy-5-(1H-pyrazol-4-yl)pyridin-2-yl]pyridazin-3-yl}-N-methyl-8-azabicyclo[3.2.1]octan-3-amine] | < 0.1 µM | < 0.1 µM | < 0.1 µM | < 0.1 µM
CN(c1ccc(-c2ccc(-c3cn[nH]c3)c(C#N)n2)nn1)[C@@H]1C[C@H]2CC[C@@H](C1)N2 [Compound 262, 6-{6-[(1R,3R,5S)-8-azabicyclo[3.2.1]octan-3-yl(methyl)amino]pyridazin-3-yl}-3-(1H-pyrazol-4-yl)pyridine-2-carbonitrile] | < 0.1 µM | 0.1 to 1 µM | < 0.1 µM | < 0.1 µM
COc1nc(-c2ccc(N(C)[C@@H]3C[C@H]4CC[C@@H](C3)N4)nn2)cc(F)c1-c1cn[nH]c1 [Compound 268, (exo)-N-{6-[4-fluoro-6-methoxy-5-(1H-pyrazol-4-yl)pyridin-2-yl]pyridazin-3-yl}-N-methyl-8-azabicyclo[3.2.1]octan-3-amine] | < 0.1 µM | < 0.1 µM | < 0.1 µM | < 0.1 µM

From patent publication US20230365526A1, “PYRIDAZINE DERIVATIVES FOR MODULATING NUCLEIC ACID SPLICING” (REMIX THERAPEUTICS INC., priority 2020, published 2023)
